Assay results reported in PubChem BioAssay (NCI).
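Briefly, cells in 96-well plates were exposed to five compound concentrations for 48 h, and endpoints were estimated by linear interpolation. Abbreviation: GI50, concentration required for 50% inhibition of growth. TGI is the concentration that stops growth completely.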

Tests used:
Experiment in all cases: NCI tumour cell line growth inhibition, 48 h
[1] = test system: 786-0 renal
[2] = test system: A498 renal
[3] = test system: A549 NSCLC
[4] = test system: ACHN renal
[5] = test system: BT-549 breast
[6] = test system: CAKI-1 renal
[7] = test system: CCRF-CEM leukemia
[8] = test system: COLO 205 colon
[9] = test system: DU-145 prostate
[10] = test system: EKVX NSCLC
[11] = test system: HCC-2998 colon
[12] = test system: HCT-116 colon
[13] = test system: HCT-15 colon
[14] = test system: HL-60(TB) leukemia
[15] = test system: HOP-62 NSCLC
[16] = test system: HOP-92 NSCLC
[17] = test system: HS 578T breast
[18] = test system: HT29 colon
[19] = test system: IGROV1 ovarian
[20] = test system: K-562 leukemia
[21] = test system: KM12 colon
[22] = test system: LOX IMVI melanoma
[23] = test system: M14 melanoma
[24] = test system: MALME-3M melanoma
[25] = test system: MCF7 breast
[26] = test system: MDA-MB-231 breast
[27] = test system: MDA-MB-435
[28] = test system: MOLT-4 leukemia
[29] = test system: NCI-H226 lung
[30] = test system: NCI-H23 lung
[31] = test system: NCI-H460 lung
[32] = test system: NCI-H522 lung
[33] = test system: NCI/ADR-RES ovarian
[34] = test system: OVCAR-3 ovarian
[35] = test system: OVCAR-4 ovarian
[36] = test system: OVCAR-5 ovarian
[37] = test system: OVCAR-8 ovarian
[38] = test system: PC-3 prostate
[39] = test system: RPMI-8226 leukemia
[40] = test system: RXF 393 renal
[41] = test system: SF-268 CNS
[42] = test system: SF-295 CNS
[43] = test system: SF-539 CNS
[44] = test system: SK-MEL-2 melanoma
[45] = test system: SK-MEL-28 melanoma
[46] = test system: SK-MEL-5 melanoma
[47] = test system: SK-OV-3 ovarian
[48] = test system: SN12C renal
[49] = test system: SNB-19 CNS
[50] = test system: SNB-75 CNS
[51] = test system: SR leukemia
[52] = test system: SW-620 colon
[53] = test system: T-47D breast
[54] = test system: TK-10 renal
[55] = test system: U251 CNS
[56] = test system: UACC-257 melanoma
[57] = test system: UACC-62 melanoma
[58] = test system: UO-31 renal

Cc1ccc2c3c(c(=O)[nH]c2c1)C1(C(C#N)=C(N)O3)c2cc(Br)ccc2-c2ccc(Br)cc21
GI50 [1]: 2460 nM
TGI [1]: 6010 nM
GI50 [2]: 1440 nM
TGI [2]: 3610 nM
GI50 [3]: 2010 nM
TGI [3]: 4520 nM
GI50 [4]: 1870 nM
TGI [4]: 4150 nM
GI50 [5]: 3930 nM
TGI [5]: 19800 nM
GI50 [6]: 1560 nM
TGI [6]: 3230 nM
GI50 [7]: 3120 nM
TGI [7]: 15000 nM
GI50 [8]: 1870 nM
TGI [8]: 3820 nM
GI50 [9]: 2980 nM
TGI [9]: 12100 nM
GI50 [10]: 1740 nM
TGI [10]: 3820 nM
GI50 [11]: 2150 nM
TGI [11]: 4740 nM
GI50 [12]: 1940 nM
TGI [12]: 4350 nM
GI50 [13]: 2230 nM
TGI [13]: 5540 nM
GI50 [14]: 18800 nM
TGI [14]: 66700 nM
GI50 [15]: 1850 nM
TGI [15]: 4190 nM
GI50 [16]: 1380 nM
TGI [16]: 3150 nM
GI50 [17]: 2220 nM
TGI [17]: 5950 nM
GI50 [18]: 2250 nM
TGI [18]: 6060 nM
GI50 [19]: 1600 nM
TGI [19]: 3750 nM
GI50 [20]: 2960 nM
TGI [20]: 12600 nM
GI50 [21]: 1670 nM
TGI [21]: 4760 nM
GI50 [22]: 1680 nM
TGI [22]: 3250 nM
GI50 [23]: 4230 nM
TGI [23]: 17000 nM
GI50 [24]: 1510 nM
TGI [24]: 3150 nM
GI50 [25]: 2100 nM
TGI [25]: 5760 nM
GI50 [26]: 1700 nM
TGI [26]: 3600 nM
GI50 [27]: 2050 nM
TGI [27]: 4700 nM
GI50 [28]: 2920 nM
TGI [28]: 10100 nM
GI50 [29]: 1900 nM
TGI [29]: 4600 nM
GI50 [30]: 2110 nM
TGI [30]: 4620 nM
GI50 [31]: 2090 nM
TGI [31]: 4670 nM
GI50 [32]: 1610 nM
TGI [32]: 4320 nM
GI50 [33]: 6820 nM
TGI [33]: > 100000 nM
GI50 [34]: 2110 nM
TGI [34]: 4760 nM
GI50 [35]: 1720 nM
TGI [35]: 3300 nM
GI50 [36]: 2020 nM
TGI [36]: 4750 nM
GI50 [37]: 3020 nM
TGI [37]: 8620 nM
GI50 [38]: 1850 nM
TGI [38]: 4000 nM
GI50 [39]: 4500 nM
TGI [39]: 23700 nM
GI50 [40]: 1530 nM
TGI [40]: 3130 nM
GI50 [41]: 2030 nM
TGI [41]: 5080 nM
GI50 [42]: 1820 nM
TGI [42]: 3710 nM
GI50 [43]: 1730 nM
TGI [43]: 3210 nM
GI50 [44]: 2520 nM
TGI [44]: 6720 nM
GI50 [45]: 3480 nM
TGI [45]: 13400 nM
GI50 [46]: 10200 nM
TGI [46]: 24100 nM
GI50 [47]: 2470 nM
TGI [47]: 6450 nM
GI50 [48]: 1920 nM
TGI [48]: 4030 nM
GI50 [49]: 2120 nM
TGI [49]: 6010 nM
GI50 [50]: 1510 nM
TGI [50]: 3160 nM
GI50 [51]: 2360 nM
TGI [51]: 14500 nM
GI50 [52]: 1860 nM
TGI [52]: 4220 nM
GI50 [53]: 1680 nM
TGI [53]: 3780 nM
GI50 [54]: 2310 nM
TGI [54]: 6090 nM
GI50 [55]: 1810 nM
TGI [55]: 3500 nM
GI50 [56]: 2320 nM
TGI [56]: 5240 nM
GI50 [57]: 2190 nM
TGI [57]: 11300 nM
GI50 [58]: 1330 nM
TGI [58]: 2740 nM

COC(=O)c1c(C)[nH]c(/C=C2\N=C(c3ccc[nH]3)C=C2OC)c1C
GI50 [1]: 262 nM
TGI [1]: 1400 nM
GI50 [2]: 2640 nM
TGI [2]: 10700 nM
GI50 [3]: 387 nM
GI50 [4]: 189 nM
TGI [4]: 1430 nM
GI50 [5]: 199 nM
TGI [5]: 3040 nM
GI50 [7]: 50.1 nM
TGI [7]: > 100000 nM
GI50 [8]: 288 nM
TGI [8]: 1600 nM
GI50 [9]: 426 nM
TGI [9]: > 100000 nM
GI50 [10]: 1070 nM
TGI [10]: 3280 nM
GI50 [11]: 668 nM
TGI [11]: 2780 nM
GI50 [12]: 37.8 nM
TGI [12]: 1200 nM
GI50 [13]: 37.5 nM
TGI [13]: 1240 nM
GI50 [14]: 164 nM
TGI [14]: 2330 nM
GI50 [15]: 769 nM
GI50 [16]: 169 nM
TGI [16]: 711 nM
GI50 [17]: 693 nM
GI50 [18]: 33.9 nM
TGI [18]: > 100000 nM
GI50 [19]: 147 nM
TGI [19]: 1620 nM
GI50 [20]: 764 nM
TGI [20]: > 27500 nM
GI50 [21]: 93.8 nM
TGI [21]: 5670 nM
GI50 [23]: 209 nM
TGI [23]: 619 nM
GI50 [24]: 525 nM
TGI [24]: 2020 nM
GI50 [25]: 413 nM
TGI [25]: 3120 nM
GI50 [26]: 169 nM
TGI [26]: 1270 nM
GI50 [27]: 108 nM
TGI [27]: 1460 nM
GI50 [28]: 49.5 nM
TGI [28]: > 36500 nM
GI50 [29]: 1660 nM
TGI [29]: 7920 nM
GI50 [30]: 483 nM
TGI [30]: 4550 nM
GI50 [31]: 147 nM
TGI [31]: > 100000 nM
GI50 [32]: 367 nM
TGI [32]: 2440 nM
GI50 [33]: 109 nM
TGI [33]: 4600 nM
GI50 [34]: 152 nM
TGI [34]: 2090 nM
GI50 [35]: 571 nM
TGI [35]: 2440 nM
GI50 [36]: 1400 nM
TGI [36]: 3900 nM
GI50 [37]: 229 nM
GI50 [38]: 349 nM
TGI [38]: > 100000 nM
GI50 [39]: 856 nM
TGI [39]: 4980 nM
GI50 [40]: 515 nM
TGI [40]: 4270 nM
GI50 [41]: 260 nM
TGI [41]: > 100000 nM
GI50 [42]: 983 nM
TGI [42]: 3440 nM
GI50 [43]: 756 nM
TGI [43]: 2290 nM
GI50 [44]: 328 nM
TGI [44]: 1270 nM
GI50 [45]: 685 nM
TGI [45]: 2360 nM
GI50 [46]: 225 nM
TGI [46]: 665 nM
GI50 [47]: 2690 nM
TGI [47]: > 100000 nM
GI50 [48]: 389 nM
TGI [48]: > 75400 nM
GI50 [49]: 1870 nM
TGI [49]: > 100000 nM
GI50 [50]: 399 nM
TGI [50]: 3240 nM
GI50 [51]: 94.7 nM
TGI [51]: 679 nM
GI50 [52]: 36.5 nM
GI50 [53]: 816 nM
TGI [53]: 3990 nM
GI50 [54]: 141 nM
TGI [54]: 4030 nM
GI50 [55]: 117 nM
TGI [55]: 2490 nM
GI50 [56]: 339 nM
TGI [56]: 1520 nM
GI50 [57]: 287 nM
TGI [57]: 921 nM
GI50 [58]: 113 nM
TGI [58]: 280 nM
